Experimental findings from patent publication US8658666B2, “Substituted imidazoquinolines and imidazonaphthyridines” (3M Innovative Properties Company, priority 2005, dated 2014) are described below.

Where a name gives a salt, the structure may show the parent alone.

`CCOCc1nc2c(N)nc3cc(/C=C/Sc4ccccc4)ccc3c2n1CCCOC(C)C` (as salt: hydrobromid) [Example 1, 2-Ethoxymethyl-1-(3-isopropoxypropyl)-7-[(E)-2-(phenylthio)ethenyl]-1H-imidazo[4,5-c]quinolin-4-amine] had a melting point of 220 to 221 °C.
In the case of `CCOCc1nc2c(N)nc3cc(/C=C/S(=O)(=O)c4ccccc4)ccc3c2n1CCCOC(C)C` [Example 2, 2-Ethoxymethyl-1-(3-isopropoxypropyl)-7-[(E)-2-(phenylsulfonyl)ethenyl]-1H-imidazo[4,5-c]quinolin-4-amine], the melting point fell in the range of 188.5 to 190 °C.
The same measure for `CCOCc1nc2c(N)nc3cc(NC(=O)C(C)C)ccc3c2n1CCCOC(C)C` [Example 3, N-[4-Amino-2-ethoxymethyl-1-(3-isopropoxypropyl)-1H-imidazo[4,5-c]quinolin-7-yl]-2-methylpropanamide]: 214 to 215 °C; for `CCOCc1nc2c(N)nc3cc(NS(=O)(=O)CC)ccc3c2n1CC(C)(C)O` [Example 4, N-[4-Amino-2-ethoxymethyl-1-(2-hydroxy-2-methylpropyl)-1H-imidazo[4,5-c]quinolin-7-yl]ethanesulfonamide]: 124 to 127 °C; for `CCOCc1nc2c(N)nc3cc(CCCCNC(C)=O)ccc3c2n1CCCOC(C)C` [Example 5, N-{4-[4-Amino-2-ethoxymethyl-1-(3-isopropxypropyl)-1H-imidazo[4,5-c]quinolin-7-yl]butyl}acetamide]: 122 to 124 °C.
In turn, `CCCNC(=O)NCCCCc1ccc2c(c1)nc(N)c1nc(COCC)n(CCCOC(C)C)c12` [Example 6, N-{4-[4-Amino-2-ethoxymethyl-1-(3-isopropxypropyl)-1H-imidazo[4,5-c]quinolin-7-yl]butyl}-N′-propylurea] came in with a melting point of 134.5 to 135.5 °C.
The result for `CCOCc1nc2c(N)nc3cc(S(C)(=O)=O)ccc3c2n1CCCOC` [Example 7, 2-Ethoxymethyl-1-(3-methoxypropyl)-7-methylsulfonyl-1H-imidazo[4,5-c]quinolin-4-amine] reads 166.5 to 167.5 °C; that for `CCCCc1nc2c(N)nc3cc(/C=C/C(=O)OC)ccc3c2n1CC(C)C` [Example 8, Methyl(2E)-3-[4-amino-2-butyl-1-(2-methylpropyl)-1H-imidazo[4,5-c]quinolin-7-yl]prop-2-enoate], 193 to 194 °C; that for `CCOCc1nc2c(N)nc3cc(/C=C/C(=O)OC)ccc3c2n1CCCCN1CCCS1(=O)=O` [Example 9, Methyl(2E)-3-[4-amino-1-[4-(1,1-dioxidoisothiazolidin-2-yl)butyl]-2-(ethoxymethyl)-1H-imidazo[4,5-c]quinolin-7-yl]prop-2-enoate], 162 to 163 °C.
Regarding `CC(C)Cn1cnc2c(N)nc3ccc(CCCN4CCCC4=O)cc3c21` [Example 10, 1-{3-[4-Amino-1-(2-methylpropyl)-1H-imidazo[4,5-c]quinolin-8-yl]propyl}pyrrolidin-2-one], the melting point is 174 to 175 °C.
On to `CCOCc1nc2c(N)nc3cc(CCC(=O)N4CCOCC4)ccc3c2n1CC(C)(C)O` [Example 14, 1-[4-Amino-2-(ethoxymethyl)-7-(3-morpholin-4-yl-3-oxopropyl)-1H-imidazo[4,5-c]quinolin-1-yl]-2-methylpropan-2-ol], for which the melting point lay within 118 to 119 °C.
With `COC(=O)/C=C/c1ccc2c(c1)nc(N)c1ncn(CC(C)(C)O)c12` [Example 15, Methyl(2E)-3-[4-amino-1-(2-hydroxy-2-methylpropyl)-1H-imidazo[4,5-c]quinolin-7-yl]prop-2-enoate], the melting point is greater than 250 °C.
The same measure for `COC(=O)CCc1ccc2c(c1)nc(N)c1ncn(CC(C)(C)O)c12` [Example 16, Methyl 3-[4-amino-1-(2-hydroxy-2-methylpropyl)-1H-imidazo[4,5-c]quinolin-7-yl]propanoate]: 201 to 205 °C; for `CCc1nc2c(N)nc3cc(/C=C/C(=O)OC)ccc3c2n1CC(C)(C)O` [Example 17, Methyl(2E)-3-[4-amino-2-ethyl-1-(2-hydroxy-2-methylpropyl)-1H-imidazo[4,5-c]quinolin-7-yl]prop-2-enoate]: 238 to 240 °C; for `CC(C)Cn1cnc2c(N)nc3ccc(CCO)cc3c21` [Example 96, 2-(4-Amino-1-isobutyl-1H-imidazo[4,5-c]quinolin-8-yl)ethanol]: 214 to 216 °C.
The result for `CC(C)(O)Cn1cnc2c(N)nc3cc(CCC(=O)N4CCOCC4)ccc3c21` [Example 97, 3-[4-Amino-1-(2-hydroxy-2-methylpropyl)-1H-imidazo[4,5-c]quinolin-7-yl]-1-(morpholin-4-yl)propan-1-one] reads 217 to 218 °C; that for `CCc1nc2c(N)nc3cc(CCC(=O)N4CCOCC4)ccc3c2n1CC(C)(C)O` [Example 98, 3-[4-Amino-2-ethyl-1-(2-hydroxy-2-methylpropyl)-1H-imidazo[4,5-c]quinolin-7-yl]-1-(morpholin-4-yl)propan-1-one], 237 to 239 °C; that for `CC(C)(O)Cn1cnc2c(N)nc3cc(CCS(C)(=O)=O)ccc3c21` [Example 99], 269 to 271 °C.
The same measure for `CCc1nc2c(N)nc3cc(CCC(=O)N(C)C)ccc3c2n1CC(C)(C)O` [Example 100, 3-[4-Amino-2-ethyl-1-(2-hydroxy-2-methylpropyl)-1H-imidazo[4,5-c]quinolin-7-yl]-N,N-dimethylpropanamide]: 234 to 237 °C; for `COCCc1nc2c(N)nc3ccc(CCC(=O)N4CCOCC4)cc3c2n1CCCN1CCCC1=O` [Example 101, 1-{3-[4-Amino-2-(2-methoxyethyl)-8-(3-morpholin-4-yl-3-oxo-propyl)-1H-imidazo[4,5-c]quinolin-1-yl]propyl}pyrrolidin-2-one]: 168 to 170 °C.
`COCCc1nc2c(N)nc3ccc(CCC(=O)N(C)C)cc3c2n1CCCN1CCCC1=O` [Example 102, 3-{4-Amino-2-(2-methoxyethyl)-1-[3-(2-oxo-pyrrolidin-1-yl)propyl]-1H-imidazo[4,5-c]quinolin-8-yl}-N,N-dimethylpropanamide] displayed a melting point of 184 to 186 °C.
On to `CCc1nc2c(N)nc3cc(CCC(=O)N4CCSC4)ccc3c2n1CC(C)(C)O` [Example 103, 1-{4-Amino-2-ethyl-7-[3-oxo-3-(1,3-thiazolidin-3-yl)propyl]-1H-imidazo[4,5-c]quinolin-1-yl}-2-methylpropan-2-ol], for which the melting point is 210 to 212 °C.
Turning to `COCc1nc2c(N)nc3cc(CCS(C)(=O)=O)ccc3c2n1CC(C)(C)O` [Example 104, 1-{4-Amino-2-(methoxymethyl)-7-[2-(methylsulfonyl)ethyl]-1H-imidazo[4,5-c]quinolin-1-yl}-2-methylpropan-2-ol], the melting point was in the range of 210 to 212 °C.
The same measure for `CC(C)(O)Cn1c(CO)nc2c(N)nc3cc(CCS(C)(=O)=O)ccc3c21` [Example 105, 1-{4-Amino-2-(hydroxymethyl)-7-[2-(methylsulfonyl)ethyl]-1H-imidazo[4,5-c]quinolin-1-yl}-2-methylpropan-2-ol]: 221 to 223 °C; for `COCc1nc2c(N)nc3cc(CCC(=O)N4CCOCC4)ccc3c2n1CC(C)(C)O` [Example 106, 1-[4-Amino-2-(methoxymethyl)-7-(3-morpholin-4-yl-3-oxopropyl)-IH-imidazo[4,5-c]quinolin-1-yl]-2-methylpropan-2-ol]: 215 to 217 °C.

The melting point is the temperature of the solid-liquid transition.
